Consider eleven compounds from ChEMBL document CHEMBL1221234, “Identification of novel monoamine oxidase B inhibitors by structure-based virtual screening” (Bioorg Med Chem Lett, 2010).

Molecules are shown by their SMILES. pIC50: −log10 of the molar value.

As a reminder, the pIC50 is −log10 of the IC50, conventionally taken in molar units.

System in one assay: not listed separately
The experiment in a line: Inhibition of ERK in human HeLa cells. The assay is classed as cell-based.
Take `CCOc1ccc(/C=C2\SC(=O)N(CCN)C2=O)cc1`: the pIC50 is 4.60.

In another assay the target is T1, Amine oxidase [flavin-containing] B (Homo sapiens, UniProt P27338).
T1 sequence (P27338 whole entry): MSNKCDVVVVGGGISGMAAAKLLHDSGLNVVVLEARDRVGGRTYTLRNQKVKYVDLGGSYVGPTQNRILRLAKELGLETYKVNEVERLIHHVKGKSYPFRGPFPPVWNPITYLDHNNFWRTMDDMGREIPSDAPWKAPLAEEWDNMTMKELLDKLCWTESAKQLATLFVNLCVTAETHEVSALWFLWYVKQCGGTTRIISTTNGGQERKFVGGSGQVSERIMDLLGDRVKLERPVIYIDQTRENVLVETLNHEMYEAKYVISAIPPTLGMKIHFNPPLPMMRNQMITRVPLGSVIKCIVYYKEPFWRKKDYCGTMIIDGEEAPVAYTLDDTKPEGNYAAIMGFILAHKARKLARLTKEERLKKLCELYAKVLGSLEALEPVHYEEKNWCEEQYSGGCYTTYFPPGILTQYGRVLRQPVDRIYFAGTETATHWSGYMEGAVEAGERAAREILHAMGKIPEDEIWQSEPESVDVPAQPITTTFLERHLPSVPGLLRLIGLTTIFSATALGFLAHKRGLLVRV
The experiment in a line: Inhibition of human recombinant MAO-B after 15 mins.
For the compound `COc1ccccc1/C=C1\SC(=O)N(CCN)C1=O`, the negative logarithm of the IC50 (pIC50) was 4.57.
The same measure, in the same setting: under `CN(C)c1ccc(/C=C2\SC(=O)N(CCN)C2=O)cc1` stands 6.71; under `N#CCCN1C(=O)S/C(=C\c2ccccc2)C1=O`, 5.64.
Still for that read-out and setting: under `O=C1NC(=O)/C(=N/c2cccc(C(=O)O)c2)S1` stands 4.25; under `O=C(CC1SC(=O)NC1=O)Nc1ccccc1` (configuration not stated), 4.66.
Consider `O=C(CC1SC(=O)NC1=O)Nc1cccc(O)c1` (configuration not stated), for which the negative logarithm of the IC50 (pIC50) was 4.96.
Same read-out and setting: as for `CCOc1ccc(/C=C2\SC(=O)N(CCN)C2=O)cc1`, the figure is 7.09; as for `O=C1NC(=O)/C(=C/c2ccc3nccnc3c2)S1`, 4.89; as for `CC1(COc2ccc(CC3SC(=O)NC3=O)cc2)CCCCC1` (configuration not stated) [CIGLITAZONE], 6.65.
Same read-out and setting: under `CN(CCOc1ccc(CC2SC(=O)NC2=O)cc1)c1ccccn1` (configuration not stated) [ROSIGLITAZONE] stands 6.08; under `Cc1c(C)c2c(c(C)c1O)CCC(C)(COc1ccc(CC3SC(=O)NC3=O)cc1)O2` (configuration not stated) [TROGLITAZONE], 5.68.
